From US11987582B2, “Maleate salts of triazolopyrazine derivatives, compositions, methods of use, and processes of manufacturing the same” (ABION Inc, priority 2021, dated 2024)
Like-named read-outs stand apart in the source and are kept apart here.

Columns and labels:
[1] = long-term stability study, chemical purity by HPLC; assay type: physicochemical; settings: for chemical degradation: up to 15 months, in words
Method: (§1) The physical and chemical stability study was performed on the compounds of Chemical Formula 2 and Chemical Formula 1 (for reference purposes). The long-term stability study was conducted at defined temperatures and relative humidity levels (25° C./60% relative humidity (RH) and 40° C./75% RH). At regular intervals, a solid sample was analyzed by XRPD, TGMS and HPLC.
The results of the chemical purity determination for the compounds of Chemical Formula 1 and Chemical Formula 2 after 1-, 3- and 15-month exposure to 25° C./60% RH and 40° C./75% RH is presented in FIGS. 4 and 5.

[2] = PK parameters in plasma after single administration; assay type: in vivo, Wistar rats; settings: for AUC(0-inf) / AUC(0-t) / Cmax / Tmax: Wistar, rat, plasma
[3] = thermodynamic solubility in formulation vehicles (phosphate buffer pH 7.4 with excipients); assay type: physicochemical; settings: for solubility at 24 h: thermodynamic from solid
Method: In view of developing a formulation suitable for parenteral administration, the quantitative solubility of Chemical Formula land the Chemical Formula 2 were determined in phosphate buffer pH 7.4, supplemented with solubility-enhancing excipients. The target concentration is 1-1.3 mg/mL.
Based on the qualitative solubility result determined for the PBS formulation vehicle containing Transcutol (Gattefossé, France) and TPGS (tocopherol polyethylene glycol succinate), the quantitative solubility of the compound of Chemical Formula 1 and the compound of Chemical Formula 2 was determined in those vehicles to assess the maximum solubility in those vehicles. The thermodynamic solubility was then determined in PBS buffer containing Transcutol (50% and 10%) and TPGS (20% and 10%) and also in the formulation vehicles containing PEG 400 (50%, with and without presence of 2% DMSO). Suspensions of the compound of Chemical Formula 1 and the compound of Chemical Formula 2 were prepared in the selected vehicles with a compound of Chemical Formula 1 concentration of about 3.5-5 mg/mL. After incubation for 24 hours at room temperature, the solids and liquid phases were separated. The concentration of API in solution was determined by HPLC analysis. The results can be found in FIG. 6.

[4] = PK parameters after bid (twice a day) administration; assay type: in vivo; settings: for Cmax1 / Tmax1: after first daily dosing; for Cmax2 / Tmax2: after second daily dosing; for AUC / AUC(0-t): in vivo; for AUC: read-out: AUC(12-24 h)
Description: FIG. 10 and Table 4 show the PK properties of the compound of Chemical Formula 2 administered twice a day (bid).
FIG. 11 and Table 5 show the PK properties of the compound of Chemical Formula 1 administered twice per day.

[5] = test system: lung cancer cell line EBC-1; assay: cancer cell proliferation inhibitory experiment (SRB); assay type: cell-based, human
Method: The following exemplary experimental protocol was performed to test the activity of the maleate salt compounds described herein.
An RPMI 1640 cell culture medium, fetal bovine serum (FBS) and trypsin were purchased from GIBCO Co., Ltd. (Grand Island, N.Y.), and sodium hydrogencarbonate, amphotericin B and gentamycin were used as signamic medical products. In addition, reagents such as sulforhodamine (SRB) B, Trisma Base, and trichloroacetic acid (TCA), which were reagents used in a cytotoxicity measurement experiment, were purchased from Sigma Chemical Co., Ltd. For MTS analysis, a Celltiter 96 Aqueous Non-Radioactive Cell Proliferation Assay product was purchased from Promega Co., Ltd. Further, a T-25 culture container used for cell culture, a 96-well plate and other disposable glass used for cell culture were obtained from Folkon (Lincoln Park, N.J.) products.
A drug used in the experiment was diluted as an experimental medium to a desired concentration in the test, and the final dimethylsulfoxide concentration was 0.5% or less.
Cancer cell lines used in the experiment were human-derived cancer cell lines, and a lung cancer cell line EBC-1. RPMI 1640 medium with 10% fetal bovine serum (FBS) was used and cultured in an incubator of 37° C. and 5% CO2 and subcultured once by 3 to 4 days.
Specifically, after the culture with the compound of the present disclosure was terminated, the culture solution was removed, and a cold TCA solution added to each well. The cells were left at 4° C. for 1 hour to be fixed. The TCA solution was removed, and the cells were dried at room temperature, incubated with a solution obtained by dissolving 0.4% SRB in a 1% acetic acid solution, left at room temperature for 30 minutes, and then stained. Extra SRB which was not bound to the cells was washed with a 1% acetic acid solution, and the SRB was eluted by adding a […] tris buffer solution (trisma base; unbuffered) of pH 10.3 to 10.5 to the stained cells.

[6] = dynamic vapor sorption (DVS) analysis of hygroscopicity; assay type: physicochemical; settings: humidity range below 80%, 25° C., in words
Method: Differential scanning calorimetry (DSC) analysis was performed to confirm the thermal stability of the novel salts provided in the present disclosure, and dynamic vapor sorption (DVS) analysis was performed to confirm the hygroscopicity.
The DVS analysis was performed to confirm the hygroscopicity of the salts by using a DVS-1 device, and was performed at a relative humidity of 40%, 95%, and 0% at 25° C. for 60 minutes.

[7] = long-term stability study, water uptake by TGA; assay type: physicochemical
Method: as §1

[8] = pH-dependent solubility study; assay type: physicochemical
[9] = PBS formulation vehicle with 50% Transcutol, pH 7.4, aqueous with cosolvent or surfactant or cyclodextrin, PBS vehicle containing 50% Transcutol, 24 hours at room temperature
[10] = iv, 5 mg/kg, 5 mg/kg IV (10 mg/kg/day), read-out: AUC(0-12 h)
[11] = iv, 5 mg/kg, 5 mg/kg IV (10 mg/kg/day), read-out: AUClast
[12] = po, 5 mg/kg, 5 mg/kg PO (10 mg/kg/day), read-out: AUC(0-12 h)
[13] = po, 5 mg/kg, 5 mg/kg PO (10 mg/kg/day), read-out: AUClast
[14] = po, 20 mg/kg, 20 mg/kg PO (40 mg/kg/day), read-out: AUC(0-12 h)
[15] = po, 20 mg/kg, 20 mg/kg PO (40 mg/kg/day), read-out: AUClast

## CN1CCN(Cc2ccc(-c3cnc(N4CCOC(Cn5nnc6ncc(-c7cnn(C)c7)nc65)C4)nc3)cc2)CC1 (stereo not shown) [Chemical Formula 1]
[1]; 25° C./60% RH
  chemical degradation: partial chemical degradation
[1]; 40° C./75% RH
  chemical degradation: more degradation
[2]; 5 mg/kg IV
  AUClast/Dose: 1410 kg·nM·h/mg
  AUC∞/Dose: 1440 kg·nM·h/mg
  Cl: 0.000705 mg/h/nM/kg
  Vss: 0.00347 mg/nM/kg
  Vz: 0.00471 mg/nM/kg
  AUC(0-inf): 7.2 µM·h
  AUC(0-t): 7.06 µM·h
[2]; 5 mg/kg PO
  AUClast/Dose: 551 kg·nM·h/mg
  AUC∞/Dose: 562 kg·nM·h/mg
  F: 39.0%
  AUC(0-inf): 2.81 µM·h
  AUC(0-t): 2.75 µM·h
  Cmax: 343 nM
  Tmax: 4 h
[2]; 20 mg/kg PO
  AUClast/Dose: 488 kg·nM·h/mg
  AUC∞/Dose: 504 kg·nM·h/mg
  F: 35.0%
  AUC(0-inf): 10.1 µM·h
  AUC(0-t): 9.76 µM·h
  Cmax: 1080 nM
  Tmax: 4 h
[3]; PBS formulation vehicle with 10% TPGS, pH 7.4, aqueous with cosolvent or surfactant or cyclodextrin, PBS vehicle containing 10% TPGS, 24 hours at room temperature
  solubility at 24 h: ≥ 1000 µg/mL
[3]; PBS formulation vehicle with 10% Transcutol, pH 7.4, aqueous with cosolvent or surfactant or cyclodextrin, PBS vehicle with only 10% Transcutol, 24 hours at room temperature
  solubility at 24 h: ~100 µg/mL
[3]; PBS formulation vehicle with 20% TPGS, pH 7.4, aqueous with cosolvent or surfactant or cyclodextrin, PBS vehicle containing 20% TPGS, 24 hours at room temperature
  solubility at 24 h: ≥ 1000 µg/mL
[3]; [9]
  solubility at 24 h: ≥ 1000 µg/mL
[3]; formulation vehicles containing PEG 400, pH 7.4, aqueous with cosolvent or surfactant or cyclodextrin, vehicles containing PEG 400, 24 hours at room temperature
  solubility at 24 h: ~300 µg/mL
[4]; 5 mg/kg IV (10 mg/kg/day)
  AUC(0-12 h)/Dose: 1070 kg·nM·h/mg
  AUC(12-24 h)/Dose: 1480 kg·nM·h/mg
  AUClast/Dose: 1410 kg·nM·h/mg
  Cl: 0.000733 mg/h/nM/kg
  Vss: 0.0076 mg/nM/kg
  Vz: 0.00265 mg/nM/kg
  AUC: 7.38 µM·h
[4]; 5 mg/kg PO (10 mg/kg/day)
  AUC(0-12 h)/Dose: 487 kg·nM·h/mg
  AUC(12-24 h)/Dose: 490 kg·nM·h/mg
  AUClast/Dose: 488 kg·nM·h/mg
  F: 34.6%
  Cmax1: 564 nM
  Tmax1: 3-4$ h
  Cmax2: 488 nM
  Tmax2: 13-14$ h
  AUC: 2.45 µM·h
[4]; 20 mg/kg PO (40 mg/kg/day)
  AUC(0-12 h)/Dose: 395 kg·nM·h/mg
  AUC(12-24 h)/Dose: 313 kg·nM·h/mg
  AUClast/Dose: 318 kg·nM·h/mg
  F: 22.6%
  Cmax1: 821 nM
  Tmax1: 1-3$ h
  Cmax2: 1000 nM
  Tmax2: 12.083-16$ h
  AUC: 6.26 µM·h
[4]; [10]
  AUC(0-t): 5.36 µM·h
[4]; [11]
  AUC(0-t): 14.1 µM·h
[4]; [12]
  AUC(0-t): 2.44 µM·h
[4]; [13]
  AUC(0-t): 4.88 µM·h
[4]; [14]
  AUC(0-t): 7.9 µM·h
[4]; [15]
  AUC(0-t): 12.7 µM·h
[5]; EBC-1 cell line
  GI50: 0.00817 µM

## CN1CCN(Cc2ccc(-c3cnc(N4CCOC(Cn5nnc6ncc(-c7cnn(C)c7)nc65)C4)nc3)cc2)CC1.O=C(O)/C=C\C(=O)O (stereo not shown) [Chemical Formula 2]
[1]; 15 months at 40° C. and 75% relative humidity
  chemical purity greater than the free base form: at least 4.7%
[1]; 25° C./60% RH
  chemical degradation: did not show significant chemical degradation
[1]; 40° C./75% RH
  chemical degradation: remained chemically stable up to 15 months
[2]; 5 mg/kg IV
  AUClast/Dose: 1630 kg·nM·h/mg
  AUC∞/Dose: 1655 kg·nM·h/mg
  Cl: 0.000606 mg/h/nM/kg
  Vss: 0.00271 mg/nM/kg
  Vz: 0.00259 mg/nM/kg
  AUC(0-inf): 8.27 µM·h
  AUC(0-t): 8.13 µM·h
[2]; 5 mg/kg PO
  AUClast/Dose: 347 kg·nM·h/mg
  AUC∞/Dose: 355 kg·nM·h/mg
  F: 21.4%
  AUC(0-inf): 1.77 µM·h
  AUC(0-t): 1.73 µM·h
  Cmax: 246 nM
  Tmax: 2 to 4 h
[2]; 20 mg/kg PO
  AUClast/Dose: 341 kg·nM·h/mg
  AUC∞/Dose: 346 kg·nM·h/mg
  F: 20.9%
  AUC(0-inf): 6.93 µM·h
  AUC(0-t): 6.82 µM·h
  Cmax: 676 nM
  Tmax: 2 to 4 h
[3]; [9]
  solubility at 24 h: > 3500 µg/mL
[3]; all the formulation vehicles tested, in words
  solubility compared with Chemical Formula 1: higher than that of the compound of Chemical Formula 1
[3]; pH 7.4, aqueous with cosolvent or surfactant or cyclodextrin, almost all vehicles, except for the vehicle with 10% Transcutol
  solubility at 24 h: > 1300 µg/mL
[6]
  mass loss due to change in humidity (DVS): very low
[7]; 15 months, 40 degrees centigrade, 75% relative humidity (FIG. 4), in words
  water content compared to the free base form: nearly four times lower
[7]; about 15 months at 40° C. and 75% relative humidity
  water content lower than the free base form: at least 22%
[7]; incubation for 15 months under the tested conditions, in words
  water uptake: no significant water uptake
[4]; 5 mg/kg IV (10 mg/kg/day)
  AUC(0-12 h)/Dose: 1060 kg·nM·h/mg
  AUC(12-24 h)/Dose: 1470 kg·nM·h/mg
  AUClast/Dose: 1298 kg·nM·h/mg
  Cl: 0.00086 mg/h/nM/kg
  Vss: 0.00782 mg/nM/kg
  Vz: 0.00283 mg/nM/kg
  AUC: 7.34 µM·h
[4]; 5 mg/kg PO (10 mg/kg/day)
  AUC(0-12 h)/Dose: 685 kg·nM·h/mg
  AUC(12-24 h)/Dose: 798 kg·nM·h/mg
  AUClast/Dose: 742 kg·nM·h/mg
  F: 57.2%
  Cmax1: 611 nM
  Tmax1: 0.5-3$ h
  Cmax2: 802 nM
  Tmax2: 12.5-13$ h
  AUC: 3.99 µM·h
[4]; 20 mg/kg PO (40 mg/kg/day)
  AUC(0-12 h)/Dose: 612 kg·nM·h/mg
  AUC(12-24 h)/Dose: 601 kg·nM·h/mg
  AUClast/Dose: 607 kg·nM·h/mg
  F: 46.8%
  Cmax1: 1600 nM
  Tmax1: 2-3$ h
  Cmax2: 2120 nM
  Tmax2: 12.5-14$ h
  AUC: 12 µM·h
[4]; [10]
  AUC(0-t): 5.32 µM·h
[4]; [11]
  AUC(0-t): 13 µM·h
[4]; [12]
  AUC(0-t): 3.43 µM·h
[4]; [13]
  AUC(0-t): 7.42 µM·h
[4]; [14]
  AUC(0-t): 12.2 µM·h
[4]; [15]
  AUC(0-t): 24.3 µM·h
[5]; Homo sapiens, EBC-1, EBC-1 cell line
  GI50: 0.0142 µM
[5]; in words
  activity in inhibiting cancer cell growth compared to the compound of Chemical Formula 1: improved activity in inhibiting cancer cell growth
[8]; gastric pH (FIG. 7)
  less soluble than the free base form: more than 50%
[8]; pH between 1 and 3
  less soluble than the free base form: more than 75%
[8]; pH of about 1.2 in 0.05M gastric media
  less soluble than the free base form: more than 75%
